Paper PMC7698926 (International Journal of Molecular Sciences, 2020)
Converted amounts (≈) assume the structure as drawn. “And” between values parts separate entries of the source, which are not always exact repeats. Identical values can stand only once. Like-named read-outs stand apart in the source and are kept apart here. Where a SMILES comes first, the peptide text is derived from it.

Assays:
C. fangii [1] = type: cell-based, Clavibacter fangii
C. michiganensis [2] = type: cell-based, Clavibacter michiganensis subsp
X. oryzae pv. oryzae [3] = type: cell-based, Xanthomonas oryzae pv. oryzae; details: X. oryzae pv. oryzae (G-); extracellular peptide from B. subtilis strain; mean ± SD, three independent experiments; control SCK6-e 0.66 ±0.033
R. solanacearum [4] = type: cell-based, Ralstonia solanacearum; details: R. solanacearum (G-); extracellular peptide from B. subtilis strain; mean ± SD, three independent experiments; control SCK6-e 0.75 ±0.050
X. oryzae pv. oryzae [5] = type: cell-based, Xanthomonas oryzae pv. oryzae; details: peptide at MIC, 2 h, 28 °C; X. oryzae pv. oryzae exponential phase; flow cytometry; control 0.07%
X. oryzae pv. oryzae [6] = type: cell-based, Xanthomonas oryzae pv. oryzae; details: peptide at MIC; 28 °C, OD600 at 2–24 h; compared with polymyxin B
[7] = system: C. fangii, X. oryzae pv. oryzae, C. michiganensis, and R. solanacearum; type: physicochemical; details: heated 30 min at 4 °C, 50 °C, 80 °C and 100 °C; agar diffusion on four indicator bacteria; compared to control SCK6-e
C. fangii [8] = experiment: Salt sensitivity assay; type: cell-based, Clavibacter fangii; details: peptide 1 × MIC, OD600
X. oryzae pv. oryzae [9] = type: cell-based, Xanthomonas oryzae pv. oryzae; details: peptide 1 × MIC, OD600
Magnaporthe oryzae = type: cell-based; details: peptide 260 μg/mL in PDA, 28 °C, 96 h; buffer control
X. oryzae pv. oryzae [10] = system: X. oryzae pv. oryzae; design: species or system rice; details: control SCK6-e
X. oryzae pv. oryzae [11] = type: cell-based, Xanthomonas oryzae pv. oryzae; details: peptide at MIC, 10 μM DCFH-DA, 28 °C, after 30 min, upward trend at 120 min; compared to untreated strain
X. oryzae pv. oryzae [12] = type: cell-based, Xanthomonas oryzae pv. oryzae; details: peptide at MIC, 2 h, 28 °C; PBS control
C. fangii [13] = system: C. fangii
C. michiganensis [14] = system: C. michiganensis
X. oryzae pv. oryzae [15] = details: X. oryzae pv. oryzae (Gram-negative); purified peptide; LB medium, 28 °C, 24 h
R. solanacearum [16] = details: R. solanacearum (Gram-negative); purified peptide; LB medium, 28 °C, 24 h
X. oryzae pv. oryzicola = X. oryzae pv. oryzicola (Gram-negative); purified peptide; LB medium, 28 °C, 24 h
[17] = system: Gram-negative and Gram-positive bacteria; details: range over C. fangii, R. solanacearum, C. michiganensis, X. oryzae pv oryzae, X. oryzae pv. oryzicola, B. subtilis (168)

CC[C@H](C)[C@H](NC(=O)[C@H](CO)NC(=O)[C@H](CCCCN)NC(=O)[C@H](CCCNC(=N)N)NC(=O)[C@@H](NC(=O)[C@H](CCC(=O)O)NC(=O)[C@H](Cc1ccc(O)cc1)NC(=O)[C@H](CS)NC(=O)[C@H](Cc1c[nH]cn1)NC(=O)[C@@H](NC(=O)[C@H](Cc1c[nH]cn1)NC(=O)[C@H](CCCCN)NC(=O)[C@H](CCC(=O)O)NC(=O)[C@H](CO)NC(=O)[C@H](CO)NC(=O)[C@@H](NC(=O)[C@H](CS)NC(=O)[C@H](CC(N)=O)NC(=O)[C@H](Cc1ccc(O)cc1)NC(=O)[C@@H](NC(=O)[C@H](Cc1c[nH]cn1)NC(=O)[C@@H](NC(=O)[C@H](Cc1ccc(O)cc1)NC(=O)[C@@H](NC(=O)[C@H](CC(=O)O)NC(=O)[C@@H](NC(=O)[C@@H](N)CC(C)C)C(C)C)[C@@H](C)CC)[C@@H](C)O)C(C)C)[C@@H](C)O)[C@@H](C)O)[C@@H](C)CC)C(=O)N[C@@H](CO)C(=O)O [OrR214] (H-LVDIYTHVYNCTSSEKHTHCYEIRKSIS-OH)
bacteriostatic diameter (C. fangii [1]): 1.1 ±0.033 cm
bacteriostatic diameter (C. michiganensis [2]): 1.2 ±0.033 cm
bacteriostatic diameter (X. oryzae pv. oryzae [3]): 1.3 ±0.058 cm
bacteriostatic diameter (R. solanacearum [4]): 1.3 ±0.050 cm
PI staining rate (PI uptake) (X. oryzae pv. oryzae [5]): ~37.1%
time-kill, bacterial growth after peptide treatment (X. oryzae pv. oryzae [6]): hardly grew after 12 h of treatment
antimicrobial activity after heating (thermal stability) [7]: significant activity
antimicrobial activity at 150 mM Na+ (C. fangii [8]; NaCl 150 mM): slightly affected
antibacterial activity at 50–100 mM Na+ (C. fangii [8]; NaCl 50, 100 mM): significant bacteriostatic effect
antimicrobial activity at 150 mM Na+ (X. oryzae pv. oryzae [9]; NaCl 150 mM): slightly affected
antibacterial activity at 50–100 mM Na+ (X. oryzae pv. oryzae [9]; NaCl 50, 100 mM): significant bacteriostatic effect
mycelium growth of Magnaporthe oryzae (Magnaporthe oryzae): significantly inhibit the mycelium growth
necrotic leaf lesion growth on detached rice leaves (X. oryzae pv. oryzae [10]; X. oryzae pv. oryzae mixed with peptide, leaf clipping, 28 °C, 7 d): decreased necrotic leaf lesion growth
incidence of rice leaves (X. oryzae pv. oryzae [10]; X. oryzae pv. oryzae, 7 d post-inoculation, lesion length): decreased significantly
ROS production, DCFH-DA fluorescence intensity (X. oryzae pv. oryzae [11]): significantly increased
cell morphology by SEM and TEM (X. oryzae pv. oryzae [12]): severe damage to the cell membrane surface
MIC (C. fangii [13]; 24 h): 10.7 µM (≈ 35.6 µg/mL)
MIC (C. michiganensis [14]; 24 h): 10.5 µM (≈ 34.9 µg/mL)
MIC (B. subtilis (168); 168, 24 h): 8.3 µM (≈ 27.6 µg/mL)

CSCC[C@H](NC(=O)[C@@H](NC(=O)[C@@H](NC(=O)[C@H](CC(N)=O)NC(=O)[C@H](CC(N)=O)NC(=O)[C@H](CC(C)C)NC(=O)[C@H](CCCNC(=N)N)NC(=O)[C@H](CC(C)C)NC(=O)[C@@H](NC(=O)[C@H](CO)NC(=O)[C@H](CO)NC(=O)[C@@H](NC(=O)[C@@H]1CCCN1C(=O)[C@@H](NC(=O)CNC(=O)[C@@H](N)CC(C)C)C(C)C)C(C)C)[C@@H](C)O)[C@@H](C)O)[C@@H](C)O)C(=O)N[C@@H](CC(N)=O)C(=O)N1CCC[C@H]1C(=O)N[C@@H](CS)C(=O)N[C@@H](CC(C)C)C(=O)N1CCC[C@H]1C(=O)N[C@@H](CO)C(=O)O [OrR935] (H-LGVPVSSTLRLNNTTMNPCLPS-OH)
MIC (C. fangii [13]; 24 h): 37.7 µM (≈ 87.3 µg/mL)
MIC (C. michiganensis [14]; 24 h): 34.6 µM (≈ 80.1 µg/mL)
MIC (X. oryzae pv. oryzae [15]): 44.0 µM (≈ 102 µg/mL)
MIC (R. solanacearum [16]): 33 µM (≈ 76.4 µg/mL)
MIC (X. oryzae pv. oryzicola): 31.4 µM (≈ 72.7 µg/mL)
MIC (B. subtilis (168); 168, 24 h): 36.1 µM (≈ 83.6 µg/mL)
MIC (range over six bacteria) [17]: 31.4 to 44.0 µM

LSFCSCIRTNLDGFDQKLQWNPHFY [OrR1135, candidate antimicrobial peptide from the O. rufipogon cDNA library, 25 amino acids]
bacteriostatic diameter (C. fangii [1]): 1.1 ±0.060 cm
bacteriostatic diameter (C. michiganensis [2]): 1.2 ±0.033 cm
bacteriostatic diameter (X. oryzae pv. oryzae [3]): 1.2 ±0.11 cm
bacteriostatic diameter (R. solanacearum [4]): 1.4 ±0.050 cm

Polymyxin B [reference compound]
MIC (C. fangii [13]): 25.0 µM
MIC (C. michiganensis [14]): 12.5 µM
MIC (X. oryzae pv. oryzae [15]): 5.0 µM
MIC (R. solanacearum [16]): 7.5 µM
MIC (X. oryzae pv. oryzicola): 10.0 µM
MIC (B. subtilis (168); B. subtilis (168) (Gram-positive), purified peptide, LB medium, 28 °C, 24 h): 15.0 µM
MIC (range over six bacteria) [17]: 5 to 25 µM and 5.0 to 25.0 µM
